Data taken from paper PMC11302339, “A series of pyrimidine-based antifungals with anti-mold activity disrupt ER function in Aspergillus fumigatus” (Microbiology Spectrum, 2024).
Values after ≈ are worked out from the molar mass of the structure shown. Like-named read-outs stand apart in the source and are kept apart here.

Columns and labels:
[1] = tested on: Saccharomyces cerevisiae BY4741; test: Generation of resistant isolates (serial passaging); assay type: cell-based; conditions: from 1/4 MIC, twofold increases, at least 50 generations
Procedure: Finally, we attempted to generate resistant isolates to understand the rate of resistance and potentially uncover mechanism of action. First, to determine spontaneous rates, we performed high-density plating (~2 × 10^9 cells) of C. neoformans on YPD plates containing 64 µg/mL 1 ([24]). […] Next, we employed serial passaging of both C. neoformans H99 and Saccharomyces cerevisiae BY4741 to evaluate evolved resistance upon exposure to sub-MIC concentrations. Yeast cells were grown in a 96-well format in the presence of 1/4 MIC 1, then cultures were passaged to fresh media containing a twofold increase in drug concentration. At each passage, the inoculum was diluted ~1:100 to allow ~10 generations of growth for a total of at least 50 generations over the course of the experiment.

sheep red blood cells = test: Hemolysis assay; assay type: cell-based; conditions: 2 hours at RT
Procedure: Hemolysis assays were performed with defibrinated sheep’s blood (Lampire, Cat # 7239001). Blood was washed three times with PBS then resuspended to ~50% hematocrit in PBS. Drugs were diluted to generate a twofold dilution series in 200 µL PBS with equal DMSO concentration across the series, then red blood cells were added for a final concentration of 2% hematocrit. Cells were incubated at RT for 2 hours in a v-bottom microtiter plate; then, plates were spun down; and the supernatant was transferred to a flat-bottomed microtiter plate for absorbance measurement at 570 nm. Drugs were tested in technical triplicate in at least two independent assays performed on different lots of blood.

[2] = tested on: A. fumigatus UPR-responsive genes; test: A. fumigatus UPR gene expression (qRT-PCR); assay type: cell-based, Aspergillus fumigatus
Procedure: We cultured 5 × 10^6 CEA10 conidia/mL in liquid GMM for 18 hours at 37°C with shaking at 250 rpm. Cultures were treated with either DMSO or 16 µg/mL 1 for 2 hours at 37°C, 250 rpm. Then 1 mM DTT or water was added, and cultures were incubated for an additional hour. Mycelia were collected with vacuum filtration and immediately frozen with liquid nitrogen. Tissue was lyophilized then ground with glass beads with a bead beater. RNA was extracted in 1 mL of TRIazole solution (Life Technologies, Cat # 15596026), then RNA was purified with two rounds of chloroform extraction. Five micrograms of RNA was treated with TURBO DNA-free kit (Invitrogen, Cat # AM1907) according to the manufacturer’s protocol. Five hundred nanograms of DNAse-treated RNA was used for cDNA synthesis with iScript cDNA synthesis kit (BioRad, Cat # 1708891), then cDNA was diluted 1:5 with ddH2O. Quantitative real time PCR analysis was performed in 20 µL reactions using 2 µL of dilute cDNA per reaction with iQ SYBR Green Supermix (BioRad). Samples were run on a BioRad CFX Connect using a three-step amplification with 54°C annealing temperature and melt curve analysis. Gene expression is normalized to tubA and tef1 expression. Gene expression was performed in biological triplicate. Primers to detect HacA splicing and targets were designed as previously described ([51]).

[3] = tested on: C. neoformans MAPK mutants; test: C. neoformans competition assay with MAPK mutants; assay type: cell-based, Cryptococcus neoformans; conditions: 1.5 µg/mL 1, 24 hours, 37°C
Procedure: H99-mNeon and MAPK mutants (obtained from the C. neoformans kinase deletion collection, FGSC) were grown overnight in YPD at 30°C then washed in PBS. Each strain was counted and diluted into 96-well plates such that each well contained 1 × 10^3 CFU/strain with 1.5 µg/mL 1 or DMSO in 100 µL total volume. Plates were incubated at 37°C for 24 hours before analyzing on an Attune NxT Flow Cytometer with CytKick autosampler and Attune Cytometric software. Gating strategy was optimized for single cells as previously described ([50]). mNeonGreen positive and negative populations were identified by histogram plot with 100,000 cells counted per sample. Data represent mean and SD of biological triplicate and are representative of two independent experiments.

C. albicans = test: MIC testing (CLSI broth dilution); assay type: cell-based, Candida albicans
Procedure: (§1) MICs were determined using Clinical and Laboratory Standards Institute guidelines ([48], [49]). All yeasts were cultured overnight in 3 mL YPD at 30°C, then washed twice in sterile phosphate-buffered saline (PBS). Twofold serial dilutions of each drug were prepared in RMPI + MOPS, then 1 × 10^3 cells were added per well. For mold species, wells were inoculated with 1.25 × 10^3 conidia per well. Plates were incubated at 37°C for 24 (Candida spp. and S. cerevisiae), 48 (Aspergillus spp., M. circinelloides, S. apiospermum, and L. prolificans), or 72 (C. neoformans and F. oxysporum) hours. S. cerevisiae BY4743 MICs were tested in YPD due to nutritional requirements of this strain. Each assay was performed in technical duplicate in at least two independent experiments performed on different days.

[4] = tested on: S. cerevisiae heterozygous mutants; test: Chemical haploinsufficiency screen and spot dilution validation; assay type: cell-based; conditions: Saccharomyces cerevisiae, read-out: inhibition of wild-type growth
C. neoformans H99 = test: ER stress interactions on YPD plates; assay type: cell-based, Cryptococcus neoformans; conditions: 4 µg/mL 1 on YPD
Procedure: To determine interactions of 1 with ER stress in Cryptococcus neoformans, an overnight culture of H99 was diluted to 1 × 10^6 CFU/mL, then three 10-fold dilutions were prepared. Three-microliter spots of each cell dilution were plated in triplicate on YPD containing DMSO or 4 µg/mL 1 in combination with DTT, brefeldin A, or tunicamycin. Plates were incubated at 37°C for 72 hours. Images are representative of two independent experiments performed in biological triplicate.

A. fumigatus ∆ireA = test: Susceptibility of ∆ireA mutant on GMM plates; assay type: cell-based, Aspergillus fumigatus; conditions: 72 hours at 30°C, colony diameter ratio
Procedure: For Aspergillus fumigatus, 5 µL of 1 × 10^4 CEA10 conidia was spotted at the center of GMM plates containing DMSO or 1 µg/mL 1 in combination with DTT, brefeldin A, or tunicamycin. Plates were incubated at 37°C for 72 hours. Representative images of two independent experiments with three biological replicates each were obtained. For Ire1 strains, the cells were prepared as described above but were incubated at 30°C.

S. cerevisiae = test: MIC testing (broth dilution, YPD); assay type: cell-based; conditions: Saccharomyces cerevisiae, 24 h
Procedure: as §1

[5] = combination: 16 µg/mL 1 for 2 hours, then 1 mM DTT for 1 hour
[6] = single agent (16 µg/mL 1, or 1 mM DTT for 1 hour), normalized to DMSO

Compound: OC1CC(c2cc(N3CCC(CCc4ccccc4)CC3)ncn2)C1 (stereo not shown) [compound 1]
- evolved resistance, serial passaging [1]: did not recover stable resistance
- LD50 (hemolysis) (sheep red blood cells; 2% hematocrit): 350 µg/mL
- hemolysis of red blood cells (sheep red blood cells; up to 128 µg/mL): did not observe hemolysis
- increase in HacA^A splicing [2, 5]: 17 fold
- increase in HacA^B [2, 5]: 3 fold
- increase in BipA expression [2, 6]: 2 fold
- increase in PdiA expression [2, 6]: no change
- increase of spliced HacA (HacA^A) [2, 6]: about threefold
- reduction of mutant in competition with H99-GFP ([3]; ∆hog1): 20%
- reduction of mutant in competition with H99-GFP ([3]; ∆pbs2): 60%
- reduction of mutant in competition with H99-GFP ([3]; ∆ssk2): 63%
- MIC (C. albicans; Candida albicans, strain SC5314, CLSI conditions, 24 h, read-out: MIC): 64 µg/mL (≈ 190 µM)
- MIC (C. albicans; Candida albicans, strain not named, read-out: MIC): 64 µg/mL (≈ 190 µM)
- MIC (C. albicans; strain TWO7241, azole-resistant clinical isolate, CLSI conditions): 64 µg/mL (≈ 190 µM)
- MIC (C. albicans; strain TWO7243, azole-resistant clinical isolate, CLSI conditions): 64 µg/mL (≈ 190 µM)
- inhibition at 32 µg/mL [4]: ~50%
- interaction with tunicamycin (C. neoformans H99; 0.125 µg/mL tunicamycin): antagonistic
- interaction with tunicamycin (C. neoformans H99; 0.25 µg/mL tunicamycin): additive
- interaction with DTT (C. neoformans H99; 37°C, 72 hours): synergistic
- interaction with brefeldin A (C. neoformans H99; 37°C, 72 hours): synergistic
- susceptibility of ∆ireA mutant vs wild type (A. fumigatus ∆ireA): same susceptibility as wild type
- MIC (S. cerevisiae): 8 µg/mL (≈ 23.7 µM)
